From patent US10189863B2, “5,6-dihydro-4H-benzo[b]thieno-[2,3-d]azepine derivatives” (PULMOCIDE LIMITED, priority 2014, dated 2019)

Columns and labels:
[1] = Cell viability: resazurin assay; format: cell-based, human; settings: human, HEp2 cells
Procedure, shortened: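 HEp2 cells in 5% FBS DMEM exposed to compounds (0.5% DMSO final) for 5 days at 37 °C/5% CO2, then resazurin added for 6 h; fluorescence read at 545/590 nm. Percent viability loss calculated versus 0.5% DMSO vehicle, with increases shown as negative values; CC50 taken from concentration-response curves where appropriate.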

[2] = test system: RSV A2 F-protein expression in BEAS2B bronchial epithelial cells; assay: Assessment of RSV F protein expression in BEAS2B bronchial epithelial cells; format: cell-based; settings: human respiratory syncytial virus, BEAS-2B, 72 h, read-out: RSV A2 F-protein IC50 (nM)
Procedure: Assessment of RSV F Protein Expression in BEAS2B Bronchial Epithelial Cells
An early event which follows the infection of epithelial cells by RSV is the expression of RSV F-protein on the cells' surface. BEAS2B cells (SV40-immortalised human bronchial epithelial cell line) were grown in 96 well plates. Once more than 70% confluent, cells were infected with RSV A2 (#0709161v, NCPV, Public Health England, Wiltshire) at an MOI of 0.01 in clear RPMI-1640 medium (Life technologies, Paisley, UK) with 2% FBS (Life technologies, Paisley, UK), and incubated for 3 days (37° C./5% CO2).
Supernatant was aspirated and the cells were fixed with 4% formaldehyde (100 μL in PBS solution) for 20 min, washed 3 times with washing buffer (200 μL; PBS containing 0.05% Tween-20) and incubated with blocking solution (100 μL; 5% Marvel milk in PBS) for 1 hr. Cells were then washed with washing buffer (200 μL) and incubated for 1 hr at 37° C. with anti-RSV (2F7; mouse monoclonal, lot 160290, Cat. No. ab43812, Abcam plc, Cambridge, UK) F-fusion protein antibody (50 μL; prepared at a 1:1000 dilution in 5% milk/PBS-tween). After washing, cells were incubated with an HRP-conjugated anti-mouse IgG antibody (50 μL prepared at a 1:2000 dilution in 5% milk in PBS; lot 00095437, Cat.No. P0447, Dako UK Ltd, Cambridgeshire, UK) for 1 hr. Cells were washed twice with washing buffer and once with PBS. TMB substrate (100 μL; substrate reagent pack lot 320436, Cat. No. DY999, R&D Systems, Inc. Abingdon, UK) was then added and the reaction was stopped by the addition of aq sulfuric acid (50 μL; 2N). The resultant signal was determined colourimetrically (OD: 450 nm with a reference wavelength of 655 nm) in a microplate reader (Multiskan FC®, ThermoFisher Scientific). Cells were then washed and 1% crystal violet solution (50 μL; lot SLB4576, Cat. No. HT90132-1L, Sigma-Aldrich) was applied for 30 min. After washing with PBS (200 μL) 3 times, 1% SDS (100 μL) was added to each well, and plates were shaken lightly for 1 hr prior to reading the absorbance at 595 nm. The measured OD450-655 readings were corrected for cell number by dividing the OD450-655 by the OD595 readings. The percentage inhibition for each well was calculated and the IC50 value derived from the concentration-response curve generated for each test compound.

RSV A2 strain = assay: Assessment of RSV induced CPE in HEp2 cells (RSV A2 strain); format: cell-based; settings: human respiratory syncytial virus, HEp2 cells; for IC50: HEp-2, 120 h, 1 MOI, 5 days, read-out: RSV A2 CPE IC50; for inhibition at 0.01 µg/mL / inhibition at 0.1 µg/mL: HEp-2; for inhibition at 0.01 µg/mL: Inhibition (%) at 0.01 μg/mL; for inhibition at 0.1 µg/mL: Inhibition (%) at 0.1 μg/mL, read-out: RSV A2 CPE % Inhibition
Procedure, shortened: (§1)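 HEp2 cells were infected at MOI 1 with RSV A2 or RSV B Washington, with compound added at the same time (0.5% DMSO final). Incubation was 5 days for A2 and 6 days for B, then viability was read by resazurin fluorescence (545/590 nm) after 6 h. IC50, IC75 and IC90 came from concentration-response curves.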

RSV B Washington strain = assay: Assessment of RSV induced CPE in HEp2 cells (RSV B Washington strain); format: cell-based; settings: human respiratory syncytial virus, HEp2 cells; for IC50: HEp-2, 144 h, 1 MOI, 6 days, read-out: RSV B CPE IC50; for inhibition at 0.1 µg/mL / inhibition at 1 µg/mL: HEp-2; for inhibition at 0.1 µg/mL: Inhibition (%) at 0.1 μg/mL; for inhibition at 1 µg/mL: Inhibition (%) at 1 μg/mL, read-out: RSV B CPE % Inhibition
Procedure, shortened: as §1

SMILES | IC50 (RSV A2 strain) [nM] | IC50 (RSV B Washington strain) [nM] | CC50 at 5 days [1] [nM] | IC50 [2] [nM] | inhibition at 0.01 µg/mL (RSV A2 strain) [%] | inhibition at 0.1 µg/mL (RSV B Washington strain) [%] | inhibition at 0.1 µg/mL (RSV A2 strain) [%] | inhibition at 1 µg/mL (RSV B Washington strain) [%]
Cc1cccc(F)c1NC(=O)c1cc2c(s1)-c1ccccc1N(C(=O)c1ccc(NC(=O)c3cc4c(nc3N3CC5(CCOCC5)C3)CCC4)cc1)CC2 [Example 8, 6-(4-(2-(7-Oxa-2-azaspiro[3.5]nonan-2-yl)-6,7-dihydro-5H-cyclopenta[b]pyridine-3-carboxamido)benzoyl)-N-(2-fluoro-6-methylphenyl)-5,6-dihydro-4H-benzo[b]thieno[2,3-d]azepine-2-carboxamide] | 0.27 | 1.3 | > 13500 | 0.13 | 88 | 100 |  | 
Cc1cccc(F)c1NC(=O)c1cc2c(s1)-c1ccccc1N(C(=O)c1ccc(NC(=O)c3cc4c(nc3N3CC5(CCOCC5)C3)CCCC4)cc1)CC2 [Example 9, 6-(4-(2-(7-Oxa-2-azaspiro[3.5]nonan-2-yl)-5,6,7,8-tetrahydroquinoline-3-carboxamido)benzoyl)-N-(2-fluoro-6-methylphenyl)-5,6-dihydro-4H-benzo[b]thieno[2,3-d]azepine-2-carboxamide] | 0.39 | 1.4 | 12500 | 0.034 | 92 | 100 |  | 
Cc1cccc(F)c1NC(=O)c1cc2c(s1)-c1ccccc1N(C(=O)c1ccc(NC(=O)c3cc4ccccc4nc3N3CC4(CCOCC4)C3)cc1)CC2 [Example 10, 6-(4-(2-(7-Oxa-2-azaspiro[3.5]nonan-2-yl)quinoline-3-carboxamido)benzoyl)-N-(2-fluoro-6-methylphenyl)-5,6-dihydro-4H-benzo[b]thieno[2,3-d]azepine-2-carboxamide] | 0.11 | 1.5 | > 13300 | 0.48 |  | 100 | 100 | 
O=C(Nc1c(F)cccc1F)c1cc2c(s1)-c1ccccc1N(C(=O)c1ccc(NC(=O)c3cc4ccccc4nc3N3CC4(CCOCC4)C3)cc1)CC2 [Example 86, 6-(4-(2-(7-oxa-2-azaspiro[3.5]nonan-2-yl)quinoline-3-carboxamido)benzoyl)-N-(2,6-difluorophenyl)-5,6-dihydro-4H-benzo[b]thieno[2,3-d]azepine-2-carboxamide] | 0.17 | 23 | > 13200 |  | 85 | 100 |  | 
Cc1cnc(N2CCC3(CC2)COC3)c(C(=O)Nc2ccc(C(=O)N3CCc4cc(C(=O)Nc5c(C)cccc5F)sc4-c4ccccc43)cc2)c1 [Example 91, N-(2-fluoro-6-methylphenyl)-6-(4-(5-methyl-2-(2-oxa-7-azaspiro[3.5]nonan-7-yl)nicotinamido)benzoyl)-5,6-dihydro-4H-benzo[b]thieno[2,3-d]azepine-2-carboxamide] | 1.3 | 393 | > 14000 |  | 100 |  |  | 100
Cc1cnc(N2CCC3(CC2)COC3)c(C(=O)Nc2ccc(C(=O)N3CCc4cc(C(=O)Nc5c(F)cccc5F)sc4-c4ccccc43)cc2)c1 [Example 92, N-(2,6-difluorophenyl)-6-(4-(5-methyl-2-(2-oxa-7-aza-spiro[3.5]nonan-7-yl)nicotinamido)benzoyl)-5,6-dihydro-4H-benzo[b]thieno[2,3-d]azepine-2-carboxamide] | 0.17 | 60.8 | > 13900 |  | 93 |  |  | 100
Cc1cnc(N2CCC3(CC2)COC3)c(C(=O)Nc2ccc(C(=O)N3CCc4cc(C(=O)Nc5c(F)cccc5Cl)sc4-c4ccccc43)cc2)c1 [Example 93, N-(2-chloro-6-fluorophenyl)-6-(4-(5-methyl-2-(2-oxa-7-azaspiro[3.5]nonan-7-yl)nicotinamido)benzoyl)-5,6-dihydro-4H-benzo[b]thieno[2,3-d]azepine-2-carboxamide] | 0.56 | 59.3 | > 13600 |  | 98 |  |  | 100

More lines, in order of falling IC50 (RSV A2 strain), values ahead:

IC50 (RSV A2 strain) [nM] | IC50 (RSV B Washington strain) [nM] | SMILES | CC50 at 5 days [1] [nM] | IC50 [2] [nM] | inhibition at 0.01 µg/mL (RSV A2 strain) [%] | inhibition at 0.1 µg/mL (RSV B Washington strain) [%] | inhibition at 0.1 µg/mL (RSV A2 strain) [%] | inhibition at 1 µg/mL (RSV B Washington strain) [%]
3.5 | 13.5 | O=C(Nc1ccc(F)cc1F)c1cc2c(s1)-c1ccccc1N(C(=O)c1ccc(NC(=O)c3cc4ccccc4nc3N3CC4(CCOCC4)C3)cc1)CC2 [Example 85, 6-(4-(2-(7-oxa-2-azaspiro[3.5]nonan-2-yl)quinoline-3-carboxamido)benzoyl)-N-(2,4-difluorophenyl)-5,6-dihydro-4H-benzo[b]thieno[2,3-d]azepine-2-carboxamide] | > 13200 |  |  |  | 95 | 91
2.4 | > 1340 | Cc1cnc(N2CCC3(CCOCC3)CC2)c(C(=O)Nc2ccc(C(=O)N3CCc4cc(C(=O)Nc5c(C)cccc5F)sc4-c4ccccc43)cc2)c1 [Example 95, N-(2-fluoro-6-methylphenyl)-6-(4-(5-methyl-2-(3-oxa-9-azaspiro[5.5]undecan-9-yl)nicotinamido)benzoyl)-5,6-di-hydro-4H-benzo[b]thieno[2,3-d]azepine-2-carboxamide] | > 13400 |  | 100 |  |  | 27
1.8 | 508 | Cc1cnc(N2CC3(COC3)C2)c(C(=O)Nc2ccc(C(=O)N3CCc4cc(C(=O)Nc5c(C)cccc5F)sc4-c4ccccc43)cc2)c1 [Example 90, N-(2-fluoro-6-methylphenyl)-6-(4-(5-methyl-2-(2-oxa-6-azaspiro[3.3]heptan-6-yl)nicotinamido)benzoyl)-5,6-dihydro-4H-benzo[b]thieno[2,3-d]azepine-2-carboxamide] | > 14500 |  | 100 |  |  | 99
1.4 | 811 | Cc1cnc(N2CCC3(CC2)COC3)c(C(=O)Nc2ccc(C(=O)N3CCc4cc(C(=O)Nc5c(F)cccc5C(F)(F)F)sc4-c4ccccc43)cc2)c1 [Example 94, N-(2-fluoro-6-(trifluoromethyl)phenyl)-6-(4-(5-methyl-2-(2-oxa-7-azaspiro[3.5]nonan-7-yl)nicotinamido)benzoyl)-5,6-dihydro-4H-benzo[b]thieno[2,3-d]azepine-2-carboxamide] | > 13000 |  | 100 |  |  | 54
0.58 | 3 | O=C(Nc1c(F)cc(F)cc1F)c1cc2c(s1)-c1ccccc1N(C(=O)c1ccc(NC(=O)c3cc4ccccc4nc3N3CC4(CCOCC4)C3)cc1)CC2 [Example 88, 6-(4-(2-(7-oxa-2-azaspiro[3.5]nonan-2-yl)quinoline-3-carboxamido)benzoyl)-N-(2,4,6-trifluorophenyl)-5,6-di-hydro-4H-benzo[b]thieno[2,3-d]azepine-2-carboxamide] | > 12900 |  | 93 |  |  | 93
0.5 | 19.4 | Cc1cccc(F)c1NC(=O)c1cc2c(s1)-c1ccccc1N(C(=O)c1ccc(NC(=O)c3cc4sccc4nc3N3CC4(CCOCC4)C3)cc1)CC2 [Example 89, 6-(4-(5-(7-oxa-2-azaspiro[3.5]nonan-2-yl)thieno[3,2-b]pyridine-6-carboxamido)benzoyl)-N-(2-fluoro-6-methyl-phenyl)-5,6-dihydro-4H-benzo[b]thieno[2,3-d]azepine-2-carboxamide] | > 13200 |  | 100 | 100 |  | 
